These compounds were tested against T1, Delta-type opioid receptor (Homo sapiens, UniProt P41143) (assay: Agonist activity at human DOR expressed in CHO cells assessed as […] in ERK1/2 phosphorylation level). Settings: not given.
Type: functional, cell-based

T1 sequence (P41143 whole entry): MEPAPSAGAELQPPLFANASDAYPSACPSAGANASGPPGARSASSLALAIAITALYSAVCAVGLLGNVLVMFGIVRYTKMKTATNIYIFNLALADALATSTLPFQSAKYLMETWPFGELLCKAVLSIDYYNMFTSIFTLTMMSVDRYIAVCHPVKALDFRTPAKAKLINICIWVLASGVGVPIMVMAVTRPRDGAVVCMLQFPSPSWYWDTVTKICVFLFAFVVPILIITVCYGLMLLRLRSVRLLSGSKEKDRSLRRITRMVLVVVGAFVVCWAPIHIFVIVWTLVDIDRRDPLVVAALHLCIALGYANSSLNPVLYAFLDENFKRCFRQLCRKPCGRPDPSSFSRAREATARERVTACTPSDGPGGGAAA

| SMILES | EC50 [nM] |
| --- | --- |
| CN1CC[C@@]2(c3cccc(O)c3)Cc3nc4ccccc4cc3C[C@@H]2C1 | 31.6 |
| C=CCN1C[C@H](C)N([C@H](c2ccc(C(=O)NCC)cc2)c2cccc(OC)c2)C[C@H]1C | 43.7 |

These compounds were tested against T1, Delta-type opioid receptor. Settings: CHO, filed as modulator, time 1.0 hrs.

| SMILES | pKb |
| --- | --- |
| CC1(C)CC(=O)C2=C(C1)OC1=C(C(=O)CC(C)(C)C1)C2c1ccc(OCC2CCCC2)cc1 | 5.57 |
| C#Cc1ccccc1COc1ccc(C2C3=C(CC(C)(C)CC3=O)OC3=C2C(=O)CC(C)(C)C3)cc1 | 6.18 |
| CC1(C)CC(=O)C2=C(C1)OC1=C(C(=O)CC(C)(C)C1)C2c1ccc(OCc2ccccc2C2CC2)cc1 | 5.53 |
| CC1CC(=O)C2=C(C1)OC1=C(C(=O)CC(C)C1)C2c1ccc(OCC2CCCCC2)cc1 (configuration not stated) | 5.83 |
| CC1(C)CC(=O)C2=C(C1)OC1=C(C(=O)CC(C)(C)C1)C2c1ccc(OCC2CCC2)cc1 | 5.72 |

Other lines, results leading:

| pKb | SMILES |
| --- | --- |
| 5.9 | CC1(C)CC(=O)C2=C(C1)OC1=C(C(=O)CC(C)(C)C1)C2c1ccc(OCc2ccccc2Br)cc1 |
| 4.89 | Cc1ccccc1COc1ccc(C2C3=C(CC(C)(C)CC3=O)OC3=C2C(=O)CC(C)(C)C3)nc1 |
| 6.01 | Cc1ccccc1COc1ccc(C2C3=C(CC(C)(C)CC3=O)OC3=C2C(=O)CC(C)(C)C3)cc1F |
| 5.5 | CCc1ccccc1COc1ccc(C2C3=C(CC(C)(C)CC3=O)OC3=C2C(=O)CC(C)(C)C3)cc1 |
| 6.08 | CC(C)c1ccccc1COc1ccc(C2C3=C(CC(C)(C)CC3=O)OC3=C2C(=O)CC(C)(C)C3)cc1 |
